Measurements published in paper PMC11952846, “The sterol-regulating human ARV1 binds cholesterol and phospholipids through its conserved ARV1 homology domain” (The Journal of Biological Chemistry, 2025).
Positions count from the first letter of the chain named. Blank lines part the entries; values can stand above or below the molecule they belong to.

Columns and labels:
[1] = molecular target: T1, GST-ARV1 (full-length ARV1) (Homo sapiens, UniProt Q9H2C2); experiment: Lipid overlay far western; format: binding
T1 construct: Expresses full length ARV1; made in house; host or cells: E. coli BL21 (pGEX-4T1)
T1 sequence (Q9H2C2 1-271): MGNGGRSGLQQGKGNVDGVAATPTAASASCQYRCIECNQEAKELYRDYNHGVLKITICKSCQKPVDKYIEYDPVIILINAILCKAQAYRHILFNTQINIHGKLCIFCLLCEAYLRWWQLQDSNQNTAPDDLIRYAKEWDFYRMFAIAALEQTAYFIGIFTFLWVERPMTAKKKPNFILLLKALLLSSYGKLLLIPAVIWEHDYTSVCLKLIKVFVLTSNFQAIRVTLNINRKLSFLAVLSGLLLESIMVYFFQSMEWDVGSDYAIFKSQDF
Protocol: (§1) Lipid overlays were blocked in TBST-BSA (100 mM Tris–HCl buffer, pH 7.5, 150 mM NaCl, 0.5% Tween 20, 3% bovine serum albumin) for 1 h and subsequently washed eight separate times with TBST for 2 min each. Overlays were incubated with 0.5 μg/ml GST-tagged or 6XHIS-tagged proteins in 3% TBST-BSA buffer containing 0.1% Triton X-100, for 1 h at room temperature and washed as above. Overlays were incubated with either anti-GST or anti-6XHIS monoclonal antibodies at a 1:1000 dilution in TBST-BSA for 1 h at room temperature followed by eight washes in TBST. Overlays were visualized using Immobilon Western Chemiluminescent horseradish peroxidase substrate and protein–lipid interaction was detected using a GE ImageQuant LAS 3000 imager.

[2] = molecular target: T2, GST-ARV1-N98 (Homo sapiens, UniProt Q9H2C2); experiment: Lipid overlay far western; format: binding
T2 construct: Expresses amino-terminal 98 amino acids of ARV1; made in house; host or cells: E. coli BL21 (pGEX-4T1)
T2 sequence (Q9H2C2 1-98): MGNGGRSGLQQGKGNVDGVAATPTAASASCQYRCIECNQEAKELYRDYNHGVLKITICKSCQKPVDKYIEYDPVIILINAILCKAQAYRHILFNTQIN
Protocol: as §1

[3] = molecular target: T3, GST-Annexin A2 (Homo sapiens, UniProt P07355); experiment: Lipid overlay far western (positive control protein); format: binding
Protocol: as §1

[4] = molecular target: T4, 6XHIS-ARV1-N98 C34/C37A (Homo sapiens, UniProt Q9H2C2, C34A/C37A); experiment: Lipid overlay far western, site-directed mutant; format: binding; details: compared to the ARV1-N98 protein
T4 construct: Expressing amino-terminal 98 amino acids of ARV1; made in house; host or cells: E. coli BL21 (pET-28a(+))
T4 sequence (Q9H2C2 1-98 C34A/C37A): T2 sequence (Q9H2C2 1-98) with C34A, C37A
Protocol: as §1

[5] = molecular target: T5, 6XHIS-ARV1-N98 K67A (Homo sapiens, UniProt Q9H2C2, K67A); experiment: Lipid overlay far western, site-directed mutant; format: binding; details: compared to the ARV1-N98 protein
T5 construct: Expressing amino-terminal 98 amino acids of ARV1; made in house; host or cells: E. coli BL21 (pET-28a(+))
T5 sequence (Q9H2C2 1-98 K67A): T2 sequence (Q9H2C2 1-98) with K67A
Protocol: as §1

[6] = molecular target: T6, 6XHIS-ARV1-N98 K84A (Homo sapiens, UniProt Q9H2C2, K84A); experiment: Lipid overlay far western, site-directed mutant; format: binding; details: compared to the ARV1-N98 protein
T6 construct: Expressing amino-terminal 98 amino acids of ARV1; made in house; host or cells: E. coli BL21 (pET-28a(+))
T6 sequence (Q9H2C2 1-98 K84A): T2 sequence (Q9H2C2 1-98) with K84A
Protocol: as §1

[7] = molecular target: T1, GST-ARV1 (full-length ARV1); experiment: Protein-lipid liposome binding assay (ultracentrifugation, Western blot)
Protocol: (§2) Lyophilized lipids were reconstituted in chloroform at 10 mg/ml and stored in glass tubes with Teflon tops at −20 °C until use. One milliliter of 10 mg/ml stock was dried under a stream of nitrogen in a glass tube until a lipid cake/film was formed. The lipid cake was then rehydrated in BLT rehydration buffer (5 mM Tris/HCl, pH 7.4, containing 150 mM NaCl) to a concentration of 1 mg/ml. Lipid suspensions were subjected to three freeze/thaw cycles using a dry ice ethanol/[…] water bath to encapsulate the buffer and improve liposome formation. The suspension and lipid extruder were equilibrated to temperature for 10 min and liposomes were extruded using […] polycarbonate membranes (Avestin). Liposomes were made by mixing stock lipid PL (1 mg/ml) with PC (10 mg/ml).
(§3) Cholesterol composition liposomes were rehydrated with cholesterol rehydration buffer (10 mM Hepes, pH 7.4, containing 150 mM KCl).
(§4) Liposomes were serial diluted in floatation buffer (100 mM NaCl, 2 mM EDTA, pH 5.5) to a final concentration of 0.1 mg/ml. Nine hundred microliters of liposome solution was placed in clear ultracentrifuge tubes and mixed with 100 μl of 0.01 μg/ml of protein. The liposome/protein solution was incubated at room temperature for 1 h with occasional shaking. An initial 100 μl of liposome/protein solution (liposomes) was removed and the remaining 900 μl was centrifuged at 50,000g for 20 min at 4 °C. The pellet was resuspended in 800 μl of fresh floatation buffer, centrifuged as above, and 800 μl of supernatant was removed (wash 1). This was repeated a second time and again 800 μl of supernatant was removed (wash 2). The final pellet was resuspended in 100 μl of floatation buffer plus SDS treatment buffer (pellet). Thirty microliters of each fraction was run on a 15% SDS-PAGE gel and probed with an anti-GST monoclonal antibody at a 1:1500 dilution.

[8] = molecular target: T7, GST-ARV1-N98 (N-terminal 98 amino acids, AHD) (Homo sapiens, UniProt Q9H2C2); experiment: as above
T7 construct: Expresses amino-terminal 98 amino acids of ARV1; made in house; host or cells: E. coli BL21 (pGEX-4T1)
T7 sequence (Q9H2C2 1-98): T2 sequence (Q9H2C2 1-98)
Protocol: as §2, §3, §4

[9] = molecular target: T3, GST-Annexin A2; experiment: Protein-lipid liposome binding assay (positive control protein); details: protein detected in final pellet
Protocol: as §2, §4

[10] = molecular target: T8, 6XHIS-ARV1-N98 (Homo sapiens, UniProt Q9H2C2); experiment: HTRF phospholipid lipid-binding assay; details: biotinylated lipid (Bio-PL) titrated, 0.75 μM protein; lipid labels mean the biotinylated lipids
T8 construct: made in house; host or cells: E. coli BL21
T8 sequence (Q9H2C2 1-98): T2 sequence (Q9H2C2 1-98)
Text: An HTRF assay was developed for 6XHIS-ARV1-N98-lipid binding. HTRF measures analyte interactions through fluorescence resonance energy transfer technology and time-resolved measurements ([53]). The interaction between two molecules can be quantified through binding each individual molecule involved with a fluorescent label and then analyzing the transfer of energy between the initial donor fluorophore and the secondary acceptor fluorophore. Following excitation of the first fluorophore, transfer of energy can only occur if the molecules bound with the fluorescent tags are within proximity to each other.
Assays were plated in 384-well flat bottom microplates (Greiner Bio, catalog #784075-25). Proteins were diluted using binding buffer (20 mM Hepes buffer, pH 7.2, containing 0.1% BSA, and 0.01% Tween20) to a stock concentration of 0.75 μM, and biotinylated phospholipids were dispensed, dried under nitrogen gas, and resuspended in binding buffer to a stock concentration of 50 μM. The lipid stock solution was diluted by 1:2 for a series of 12 serial dilutions. For the assay, in sequential order, 6 μl of binding buffer was loaded into the plate in triplicate for each dilution of phospholipid. To this, 2 μl of 0.75 μM 6XHIS-ARV1-N98 was added, followed by 2 μl of biotinylated phospholipid. Immediately following each addition loaded into the plate, the plate was centrifuged for 1 min at 1000 rpm to bring the contents to the bottom of the well. Next, detection antibodies were mixed with detection buffer (20 mM Hepes buffer, pH 8.5, containing 0.01% BSA and 200 mM KF). […] Plates were read on a PerkinElmer EnVision Xcite Multilabel plate reader.
Curves were logarithmically transformed and normalized to a common scale before being fit with a nonlinear regression of the agonist against the normalized response. […] For phospholipid competition analysis, IC50; M values were determined using nonlinear regression of the inhibitor against normalized response.

[11] = molecular target: T9, GST-ARV1-N50 (Homo sapiens, UniProt Q9H2C2); experiment: Lipid overlay far western, truncation; format: binding; details: compared to ARV1-N98 / ARV1-N70
T9 construct: Expresses amino-terminal 50 amino acids of ARV1; made in house; host or cells: E. coli BL21 (pGEX-4T1)
T9 sequence (Q9H2C2 1-50): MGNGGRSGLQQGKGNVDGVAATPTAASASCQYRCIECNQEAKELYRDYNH
Protocol: as §1

[12] = molecular target: T10, GST-ARV1-N70 (Homo sapiens, UniProt Q9H2C2); experiment: Lipid overlay far western, truncation; format: binding; details: compared to ARV1-N98
T10 construct: Expresses amino-terminal 70 amino acids of ARV1; made in house; host or cells: E. coli BL21 (pGEX-4T1)
T10 sequence (Q9H2C2 1-70): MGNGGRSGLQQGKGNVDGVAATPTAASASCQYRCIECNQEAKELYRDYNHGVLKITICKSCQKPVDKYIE
Protocol: as §1

[13] = lipid-embedded membrane strips, incl. sphingolipid strip
[14] = protein detected in final pellet
[15] = liposomes containing 10% and 20% cholesterol
[16] = liposomes containing 30 to 50% cholesterol
[17] = PIP lipid membrane strip, 100pmol-1.56pmol per spot

T3 sequence (P07355 whole entry): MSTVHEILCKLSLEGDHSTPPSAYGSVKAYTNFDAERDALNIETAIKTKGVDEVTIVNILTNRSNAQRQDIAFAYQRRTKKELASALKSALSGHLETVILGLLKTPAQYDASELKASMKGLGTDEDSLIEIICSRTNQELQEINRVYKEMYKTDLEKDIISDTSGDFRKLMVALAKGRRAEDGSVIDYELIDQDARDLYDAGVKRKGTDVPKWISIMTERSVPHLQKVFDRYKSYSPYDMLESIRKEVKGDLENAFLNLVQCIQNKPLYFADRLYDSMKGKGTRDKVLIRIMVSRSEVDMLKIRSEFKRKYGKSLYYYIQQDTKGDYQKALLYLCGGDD

Molecule: ceramide
lipid-protein interaction [1, 13]: not
lipid-protein interaction [2, 13]: not

Molecule: CCCCCC(=O)O[C@H](COC(=O)CCCCCNC(=O)CCCC[C@@H]1SC[C@@H]2NC(=O)N[C@@H]21)COP(=O)(O)O[C@@H]1[C@H](O)[C@H](O)[C@@H](OP(=O)(O)O)[C@H](OP(=O)(O)O)[C@H]1O [PI(4,5)P2, reference compound]
lipid-protein interaction [3, 13]: interacted
change of lipid-protein interaction [4]: enhanced interactions
change of lipid-protein interaction [5]: increased interactions
change of lipid-protein interaction [6]: increased interactions

Molecule: PI(3,4,5)P3
lipid-protein interaction [3, 13]: interacted
change of lipid-protein interaction [5]: increased interactions
change of lipid-protein interaction [6]: increased interactions

Molecule: phosphatidylinositol [PI, reference compound]
binding to PC:PL liposomes [7, 14]: not
binding to PC:PL liposomes [8, 14]: not
binding to PC:PL liposomes [9]: not
EC50 [10]: 12 µM

Molecule: CC(C)CCC[C@@H](C)[C@H]1CC[C@H]2[C@@H]3CC=C4C[C@@H](O)CC[C@]4(C)[C@H]3CC[C@]12C [cholesterol]
binding to PC:Chol liposomes [7, 15]: bound
binding to PC:Chol liposomes [7, 16]: neither ARV1 nor ARV1-N98 associated
binding to PC:Chol liposomes [8, 15]: bound
binding to PC:Chol liposomes [8, 16]: neither ARV1 nor ARV1-N98 associated
lipid-protein interaction [1, 13]: not seen
lipid-protein interaction [2, 13]: not seen

Molecule: CCCCCC(=O)O[C@H](COC(=O)CCCCCNC(=O)CCCC[C@@H]1SC[C@@H]2NC(=O)N[C@@H]21)COP(=O)(O)O[C@@H]1[C@H](O)[C@H](OP(=O)(O)O)[C@@H](O)[C@H](O)[C@H]1O [reference compound]
lipid-protein interaction [1, 17]: interacted
lipid-protein interaction [2, 17]: interacted
lipid-protein interaction [3, 17]: strongest interactions
change of lipid-protein interaction [11]: enhanced
change of lipid-protein interaction [12]: reduced interactions

Molecule: CCCCCC(=O)O[C@H](COC(=O)CCCCCNC(=O)CCCC[C@@H]1SC[C@@H]2NC(=O)N[C@@H]21)COP(=O)(O)O[C@H]1[C@H](O)[C@@H](OP(=O)(O)O)[C@H](O)[C@@H](O)[C@H]1O [PI(5)P, reference compound]
lipid-protein interaction [1, 17]: interacted
lipid-protein interaction [2, 17]: interacted
lipid-protein interaction [3, 17]: strongest interactions
change of lipid-protein interaction [11]: eliminated
change of lipid-protein interaction [12]: reduced interactions

Second part, the molecule after the results:

lipid-protein interaction [1, 13]: not
lipid-protein interaction [2, 13]: not
Molecule: CCCCCCCCCCCCCC[C@@H](O)[C@@H](O)[C@@H](N)CO [phytosphingosine]

lipid-protein interaction [1, 13]: not seen
lipid-protein interaction [2, 13]: not seen
Molecule: lyso-phosphatidylcholine

lipid-protein interaction [1, 13]: not
lipid-protein interaction [2, 13]: not
Molecule: CCCCCCCCCCCCC/C=C/[C@@H](O)[C@@H](N)CO [sphingosine]

lipid-protein interaction [1, 13]: not seen
lipid-protein interaction [2, 13]: not seen
Molecule: CCCCCCCC/C=C\CCCCCCCC(=O)OC[C@@H](O)COP(=O)(O)O [lyso-phosphatidic acid]

lipid-protein interaction [1, 13]: not
lipid-protein interaction [2, 13]: not
Molecule: CCCCCCCCCCCCC/C=C/[C@@H](O)[C@@H](N)COP(=O)(O)O [sphingosine-1-phosphate]
